# Laboratory results published in publication PMC11342626, “Inhibition of IRP2-dependent reprogramming of iron metabolism suppresses tumor growth in colorectal cancer” (Cell Communication and Signaling : CCS, 2024).
# pKd: −log10 of the molar value.
# Biological target: T1, IRP2 (Homo sapiens, UniProt P48200)
# T1 construct: gene IREB2; isolated IRP2 immobilised on CM5 chip
# T1 sequence (P48200 1-963): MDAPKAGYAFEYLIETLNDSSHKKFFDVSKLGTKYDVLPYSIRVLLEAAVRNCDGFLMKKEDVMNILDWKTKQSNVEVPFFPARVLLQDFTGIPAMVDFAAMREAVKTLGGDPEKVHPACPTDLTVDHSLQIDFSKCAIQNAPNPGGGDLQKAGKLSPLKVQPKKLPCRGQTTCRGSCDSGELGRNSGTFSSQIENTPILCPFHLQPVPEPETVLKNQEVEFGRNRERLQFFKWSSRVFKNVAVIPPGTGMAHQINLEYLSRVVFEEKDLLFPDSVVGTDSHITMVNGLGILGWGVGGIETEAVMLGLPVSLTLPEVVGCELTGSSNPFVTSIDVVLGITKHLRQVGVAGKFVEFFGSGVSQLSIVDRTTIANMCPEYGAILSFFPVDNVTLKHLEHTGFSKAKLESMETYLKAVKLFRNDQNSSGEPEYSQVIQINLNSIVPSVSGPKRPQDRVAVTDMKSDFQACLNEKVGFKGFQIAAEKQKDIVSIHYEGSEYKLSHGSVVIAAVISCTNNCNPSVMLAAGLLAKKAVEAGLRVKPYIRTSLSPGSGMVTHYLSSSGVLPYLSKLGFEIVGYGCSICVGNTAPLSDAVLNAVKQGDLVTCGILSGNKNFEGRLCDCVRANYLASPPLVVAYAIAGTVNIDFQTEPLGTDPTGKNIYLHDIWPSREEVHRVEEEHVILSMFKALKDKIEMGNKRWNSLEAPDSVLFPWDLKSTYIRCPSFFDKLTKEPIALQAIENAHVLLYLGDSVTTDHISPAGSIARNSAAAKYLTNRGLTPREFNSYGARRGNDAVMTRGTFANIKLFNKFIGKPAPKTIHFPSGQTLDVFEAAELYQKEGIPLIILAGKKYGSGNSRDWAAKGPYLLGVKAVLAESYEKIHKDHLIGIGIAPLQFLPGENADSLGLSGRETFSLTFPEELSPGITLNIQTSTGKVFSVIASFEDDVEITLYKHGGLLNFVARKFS
# Assay: SPR (Biacore T200, CM5 chip, multi-cycle kinetics, […] fit)
# Type: binding
row,Structure (SMILES),pKd
1,COc1ccc(S(=O)(=O)Nc2cccc(C)c2)cc1-c1cnc2[nH]ncc2c1 [KS-20073],4.34
2,COc1ccc(S(=O)(=O)Nc2cccc(F)c2)cc1-c1cnc2[nH]nc(NC(C)=O)c2c1 [KS-20226],5.39
